Data on 29 molecules can be found in ChEMBL document CHEMBL4725267, “Design and synthesis of potent inhibitors of bc complex based on natural product neopeltolide” (Bioorg Med Chem Lett, 2020).

What is called pIC50 is the negative decadic logarithm of the IC50, by convention in mol/L. A lower pIC50 goes with a high IC50. Broadly, the inhibition is the change of the read-out against control, counted positive when it falls. A low value points to a weak effect.

pIC50: −log10 of the molar value. Some results are limits rather than exact numbers.

Biological target in one assay: not listed separately
Briefly: (§1) Inhibition of porcine heart Succinate-cytochrome c reductase complex 2 by measuring decrease in DCIP at 10 uM relative to control.
Conditions: not given
It counts as tissue-based, Sus scrofa.
With `CO/C=C(/C(=O)OC)c1ccccc1Oc1cc(Oc2ccccc2C#N)ncn1` [AZOXYSTROBIN], the negative logarithm of the IC50 (pIC50) is 6.15.

The species entered for the next assay is Sus scrofa. The description is as §1. It counts as tissue-based.
Conditions: not given
Take `CCn1cc(Cl)c2c(COC(=O)c3coc(/C=C\CNC(=O)OC)n3)cccc21`: the inhibition is below 10%. Regarding `COC(=O)NC/C=C\c1nc(C(=O)OCc2cccc3[nH]cc(Cl)c23)co1`, the inhibition came to 12%. The molecule `COC(=O)NC/C=C\c1nc(C(=O)OCc2cccc3c2c(Cl)cn3Cc2ccc(Br)cc2)co1` had an inhibition of 14%.

`COC(=O)NC/C=C\c1nc(C(=O)OCc2cccc3c2c(Cl)cn3Cc2ccc(Cl)cc2)co1` displayed an inhibition of 31%. For `COC(=O)NC/C=C\c1nc(C(=O)OCc2cccc3c2c(Cl)cn3Cc2ccc(C)cc2)co1`, the inhibition was found to be 11%. On the same count and under the same terms, the value for `COC(=O)NC/C=C\c1nc(C(=O)OCc2cccc3c2c(Cl)cn3Cc2cccc(Cl)c2)co1` was 23%. Molecule `COC(=O)NC/C=C\c1nc(C(=O)OCc2cccc3c2c(Cl)cn3Cc2cccc(C)c2)co1` registered an inhibition of 49%. Molecule `CCCn1cc(Cl)c2c(COC(=O)c3coc(/C=C\CNC(=O)OC)n3)cccc21` came in with an inhibition of 24%. Consider `COC(=O)NC/C=C\c1nc(C(=O)OCc2cccc3c2c(Cl)cn3Cc2cccc(Br)c2)co1`, for which the inhibition came to 34%. `COC(=O)NC/C=C\c1nc(C(=O)OCc2cccc3c2c(Cl)cn3Cc2cc(C)cc(C)c2)co1` gave an inhibition of 27%. On the same count and under the same terms, the value for `C#CCn1cc(Cl)c2c(COC(=O)c3coc(/C=C\CNC(=O)OC)n3)cccc21` was 25%.

For `C=CCn1cc(Cl)c2c(COC(=O)c3coc(/C=C\CNC(=O)OC)n3)cccc21`, the inhibition was 21%. Molecule `COC(=O)NC/C=C\c1nc(C(=O)OCc2cccc3c2c(Cl)cn3Cc2ccccc2Br)co1` yielded an inhibition of 33%.

The molecule `COC(=O)NC/C=C\c1nc(C(=O)OCc2cccc3c2c(Cl)cn3Cc2ccc(F)cc2)co1` returned an inhibition of 46%. On the same count and under the same terms, the value for `COC(=O)NC/C=C\c1nc(C(=O)OCc2cccc3c2c(Cl)cn3Cc2ccccc2)co1` was 41%. `COC(=O)NC/C=C\c1nc(C(=O)OCc2cccc3c2c(Cl)cn3Cc2ccc(F)cc2F)co1`: the inhibition turned out to be 46%. In turn, `COC(=O)NC/C=C\c1nc(C(=O)OCc2cccc3c2c(Cl)cn3Cc2cccc(F)c2)co1` came in with an inhibition of 32%.

In turn, `COC(=O)NC/C=C\c1nc(C(=O)OCc2cccc3c2c(Cl)cn3C)co1` came in with an inhibition below 10%. Regarding `COC(=O)NC/C=C\c1nc(C(=O)OCc2cccc3c2c(Cl)cn3Cc2ccccc2F)co1`, the inhibition is 50%. Still for that read-out and setting: the result for `COC(=O)NC/C=C\c1nc(C(=O)OCc2cccc3c2c(Cl)cn3Cc2ccccc2Cl)co1` reads 31%; that for `COC(=O)NC/C=C\c1nc(C(=O)OCc2cccc3c2c(Cl)cn3Cc2ccccc2C)co1`, 47%.

A further assay is filed under the species Sus scrofa. As to the kind of experiment: Inhibition of porcine heart Succinate-cytochrome c reductase complex 2 by measuring decrease in DCIP at 1 uM relative to control. It counts as tissue-based. The following applies: […].
Molecule `COC(=O)NC/C=C\c1nc(C(=O)Nc2cccc3c2ccn3Cc2ccccc2C)co1` yielded an inhibition of 65%. Take `COC(=O)NC/C=C\c1nc(C(=O)Nc2cccc3c2ccn3Cc2ccc(C)cc2)co1`: the inhibition was 55%.

Biological target in a further assay: not listed separately
As to the kind of experiment: Inhibition of porcine heart Succinate-cytochrome c reductase complex 2 by measuring decrease in DCIP. It counts as tissue-based, Sus scrofa.
Conditions: not given
As for `COC(=O)NC/C=C\c1nc(C(=O)Nc2cccc3c2ccn3Cc2cccc(F)c2)co1`, the pIC50 is 5.76. Molecule `COC(=O)NC/C=C\c1nc(C(=O)Nc2cccc3c2ccn3Cc2ccccc2F)co1` showed a negative logarithm of the IC50 (pIC50) of 5.87. Same read-out and setting: the value for `COC(=O)NC/C=C\c1nc(C(=O)Nc2cccc3c2ccn3Cc2cccc(C)c2)co1` was 6.15; that for `COC(=O)NC/C=C\c1nc(C(=O)Nc2cccc3c2ccn3Cc2ccc(F)cc2)co1` was 5.84.

Test system in another assay: not listed separately
Briefly: Inhibition of bovine heart mitochondrial cytochrome bc1 complex.
Conditions: not given
It counts as mitochondria, Bos taurus, Mitochondria.
In the case of `CCC[C@H]1C[C@@H](OC)C[C@H](C)C[C@@H]2C[C@@H](OC(=O)/C=C\CCc3coc(/C=C\CNC(=O)OC)n3)C[C@H](CC(=O)O1)O2`, the pIC50 is 8.70.
